The text below walks through data of patent US5821330A, “Peptide having inflammation affinity and radioactive diagnostic containing the same” (Nihon Medi-Physics Co., Ltd., priority 1993, dated 1998).

Data set [1] is described as follows: Safety of the peptides: bolus tail vein administration to rat, observation until five days, dissection. Format: in vivo. Particulars: for abnormality in tissue checked with the naked eye (hemostatis, pigmentation, discoloration): dissection five days after 8.3 μg per 1.0 g of rat; for abnormality in tissue checked with the naked eye (hemostatis, pigmentation, discoloration) / extreme change in weight, i.e., weight gain or loss: tail vein; for symptoms such as slobber, vomiting, ocular proptosis, and behavioral abnormality: just after bolus tail vein administration, 8.3 μg per 1.0 g of rat; for extreme change in weight, i.e., weight gain or loss: until five days after 8.3 μg per 1.0 g of rat. The protocol:
Assuming that clinical dosage to human is 1.0 mg/60 kg, bolus administration of Peptide-1, Peptide 4 and Peptide-5 in an amount of 8.3 μg per 1.0 g of rat and physiological saline as control were made respectively to the tail vein of the rat. Immediately after the administration, behavior of the rat was observed. The observation was continued until five days later; zero minute, ten minutes, three hours, six hours, one day, two days, three days, four days, and five days later. Just after the peptide administration, symptoms such as slobber, vomiting, ocular proptosis, and behavioral abnormality were not observed. Furthermore, extreme change in weight, i.e., weight gain or loss was not observed until five days later. After weighing five days later, the rats were dissected. Abnormality in tissue was checked with the naked eye; abnormality in any tissue was not noted such as hemostatis, pigmentation, or discoloration. These gave estimation that more than 1,000 times administration of the assumed clinical dosage would be safe.

Data set [2] concerns inflammation site of inflammation model rats. In words: Imaging of inflammation sites using indium-111 labeled peptide (turpentine oil inflammation model rats, gamma camera). Format: in vivo, Sparague-Davley Rats. Particulars: 3.7-7.4 MBq tail vein, mean ± standard error, three rats. The protocol: Peptide-1-DTPA obtained in EXAMPLE 8, in an amount of 100 through 200 nmol was adjusted to pH 5.7 in a 0.1M citrate buffer solution, and then 37 to 74 MBq of indium (^111 In) chloride was added thereto. After agitation, the solution was left as such for 15 minutes. A part of the solution was taken and checked for the labeling percentage by electrophoresis. The radiochemical purity of the target compound was 98%. Peptide-3-Sulfo-SMCC-CHI-DTPA obtained in EXAMPLE 10 was also labeled with In-111 in the same way as above, and the radiochemical purity of the target compound was 90%.
(§1) To the right femoral part of Sparague-Davley Rats weighing about 220 g, 100 μl of turpentine oil was subcutaneously administered. After 24 hours, when inflammation was clearly observed, Ravonal anesthesia was applied; then, Peptide-1-DTPA-indium-111 and Peptide-3-Sulfo-SMCC-CHI-DTPA-indium-111 obtained in EXAMPLE 14 were respectively administered in an amount of 3.7 MBq-7.4 MBq to the respective tail vein. Images were obtained with gamma camera one, three, and six hours later. A site of interest was set on the image, where the ratio ([T]/[B] ratio) of total counts for the inflammation site [T] to total counts for the corresponding normal site of the opposite leg [B] was determined. The [T]/[B] ratio, one hour after the administration, was 2.63 for Peptide-1-DTPA-indium-111 and 2.09 for Peptide-3-DTPA-indium-111, whereby the focal site was evidently imaged.

The subject of data set [3] is inflammation site of inflammatory model rats. In words: Imaging of inflammation sites using technetium-99m labeled peptide (turpentine oil inflammation model rats, gamma camera). In kind it is in vivo, Sparague-Davley Rats. The conditions noted are these: 37-74 MBq tail vein, mean ± standard error, three rats. The protocol:
An amount of 240-300 nmol of Peptide-2 obtained in EXAMPLE 2 was taken into each vial, and a volume of a 0.1M phosphate buffer solution (pH 8.0) was added thereto to adjust the whole […] Atmosphere in the vial was replaced with argon; then 180-300 nmol of dithiothreitol was added thereto, The mixture was then allowed to react for one hour at room temperature. Next, 120 nmol of stannous chloride and 740-1110 MBq of sodium pertechnetate were added. The mixture was left for one hour under gentle agitation. Peptide-2 labeled with technetium-99m was yielded. Peptide labeled had radiochemical purity not less than 90%.
Experiments were made for all the peptides those prepared in EXAMPLEs 4, 5, 6 and 7. Each of the peptides was taken, in an amount of 0.2-1.0 μmol, into a vial respectively, and a volume of a 0.1M phosphate buffer solution (pH 8.0) was added thereto to adjust the whole volume to 500 μl. Atmosphere in the respective vial was replaced with argon. To each vial, 500 μl of 1.5-2.2 GBq/ml glucoheptanate labeled with technetium-99m yielded in EXAMPLE 16 was added and quickly agitated. Thereafter, the mixture was allowed to react for 20 minutes in a boiling water bath. Labeling percentage of all the experimented peptides after cooling was 90-95% according to TLC.
as §1
After Ravonal anesthesia was applied to the model rats described in EXAMPLE 18, 37-74 MBq of technetium-99m labeled Peptide-2 obtained in EXAMPLE 15, Peptide-4, Peptide-5, Peptide-6 and Peptide-7 obtained in EXAMPLE 17 were each administered to the respective tail vein. Images were obtained with gamma camera 30 minutes and one, three, and six hours later respectively. A site of interest was set on the image and the [T]/[B] ratio was determined. The [T]/[B] ratio, one hour after the administration, was 3.35 for Peptide-2, 4.98 for Peptide-6, 3.36 for Peptide-7, 4.27 for Peptide-4 and 4.41 for Peptide-5 whereby the focal site was evidently imaged.

Data set [4] deals with focal region of model rats with infectious disease (Staphylococcus aureus). Description: Imaging of rat model with infectious disease (Staphylococcus aureus) using technetium-99m labeled peptide. The conditions noted are these: 37-74 MBq tail vein, mean ± standard error. In kind it is in vivo, Sparague-Davely Rats. The protocol: In 1.0 mL of physiological saline, 10^8 of viable microbe cells of Staphylococcus aureus were suspended. An aliquot of 100 μl was administered intramuscularly to the right femoral region of Sparague-Davely Rats weighing about 220 g. After 24 hours, Ravonal anesthesia was applied to the model rats that had clearly evident inflammation; then, 37-74 MBq of technetium-99m labeled Peptide-6 obtained in […] was administered to the tail vein. Images were obtained with gamma camera one, three, and six hours later respectively. A site of interest was set on the image, and the [T]/[B] ratio was determined.

[5] abbreviates: assumed clinical dosage to human 1.0 mg/60 kg, estimate from rat observation.

Where “and” joins values, the source holds several entries; their conditions need not be identical. Equal values may be shown once. Ends that are not written are not given here. Peptide text beside a SMILES is read from it. * marks the point of attachment. Acm = CC(=O)NC*

As to `CC(C)C[C@H](NC(=O)[C@H](CC(C)C)NC(=O)[C@H](CCC(=O)O)NC(=O)[C@@H]1CCCN1C(=O)CNC(=O)CNC(=O)[C@@H](N)CCCCN)C(=O)NCC(=O)NCC(=O)N1CCC[C@H]1C(=O)N[C@@H](CO)C(=O)N[C@H](C(=O)O)C(C)C` [Peptide-1, KGGPELLGGPSV] (H-KGGPELLGGPSV-OH), in data set [1], the “abnormality in tissue checked with the naked eye (hemostatis, pigmentation, discoloration)” value (shortened to “abnormality in tissue checked”) is recorded as “not noted”; the “symptoms such as slobber, vomiting, ocular proptosis, and behavioral abnormality” value (“symptoms such … and behavioral abnormality” for short) is given as “not observed”; the “extreme change in weight, i.e., weight gain or loss” value is “not observed”. In data set [1] (rat, in vivo), the “estimated safe administration relative to the assumed clinical dosage” value was “more than 1,000 times”.
Take `CC(C)C[C@H](NC(=O)[C@@H](N)CC(C)C)C(=O)NCC(=O)NCC(=O)N1CCC[C@H]1C(=O)N[C@@H](CO)C(=O)N[C@H](C(=O)N[C@@H](CS)C(=O)O)C(C)C` [Peptide-3, LLGGPSVC] (H-LLGGPSVC-OH): the “[T]/[B] ratio of In-111 labeled peptides in inflammation model rats” value in data set [2] (1 hr. after administration, inflammation site vs opposite normal leg) turned out to be 2.09 ± 0.18; in data set [2] (3 hrs. after administration), 2.46 ± 0.29; in data set [2] (6 hrs. after administration), 2.78 ± 0.15.
Regarding “(PELLGGPSV)×4 in parallel (K)×2 in parallel (KGGC(Acm)GC(Acm)) (PELLGGPSVPELLGGPSVPELLGGPSVPELLGGPSVKKKGGC(Acm)GC(Acm); also: branched Lys scaffold carrying four PELLGGPSV arms) [Peptide-6]”, the “[T]/[B] ratio of Tc-99m labeled peptide in inflammatory model rats” value (shortened to “[T]/[B] ratio … in inflammatory model rats”) in data set [3] (1 hr. after administration) was 4.98 and 4.98 ± 0.23; in data set [3] (3 hrs. after administration), 4.61 ± 0.49; in data set [3] (6 hrs. after administration) it was 3.20 ± 0.39. Also, the “[T]/[B] ratio of Tc-99m labeled peptide in model rats with infectious disease” value in data set [4] (1 hr. after administration, S. aureus intramuscular, right femoral region) was 1.92 and 1.92 ± 0.10; in data set [4] (3 hrs. after administration, S. aureus model) it was 1.58 ± 0.05; in data set [4] (6 hrs. after administration, S. aureus model), 1.52 ± 0.17.
In the case of “C(Acm) GC(Acm)GGGKEYKAKVSNKALPAPIEKTISK (C(Acm)GC(Acm)GGGKEYKAKVSNKALPAPIEKTISK; also: technetium-99m label) [Peptide-4]”, the “[T]/[B] ratio … in inflammatory model rats” value in data set [3] (30 mins after administration) is 2.47 ± 0.17; in data set [3] (1 hr. after administration), 4.27 and 4.27 ± 0.26; in data set [3] (3 hrs. after administration), 3.10 ± 0.20. Further, the “estimated safe administration relative to the assumed clinical dosage” value in data set [1] (setting [5]) is listed as “more than 1,000 times”. Moreover, the “abnormality in tissue checked” value in data set [1] is listed as “not noted”. In addition, the “symptoms such … and behavioral abnormality” value in data set [1] is “not observed”. Besides, the “extreme change in weight, i.e., weight gain or loss” value in data set [1] is “not observed”.
Turning to “C(Acm)GC(Acm)GGKTKPREQQYNSTYRVV (also: technetium-99m label) [Peptide-5]”, the “[T]/[B] ratio … in inflammatory model rats” value was 2.61 ± 0.08 in data set [3] (30 mins after administration); 4.41 and 4.41 ± 0.62 in data set [3] (1 hr. after administration); 3.85 ± 0.63 in data set [3] (3 hrs. after administration). Moreover, the “estimated safe administration relative to the assumed clinical dosage” value in data set [1] (setting [5]) was “more than 1,000 times”. Moreover, in data set [1], the “abnormality in tissue checked” value is listed as “not noted”. Further, the “symptoms such … and behavioral abnormality” value in data set [1] is reported as “not observed”. Further, the “extreme change in weight, i.e., weight gain or loss” value in data set [1] is on record as “not observed”.
Consider “C(Acm)GC(Acm)GG[(PELLGGPSV)×3 repeats in tandem]A (C(Acm)GC(Acm)GGPELLGGPSVPELLGGPSVPELLGGPSVA; also: technetium-99m label) [Peptide-7]”, for which the “[T]/[B] ratio … in inflammatory model rats” value was 3.36 and 3.36 ± 0.31 in data set [3] (1 hr. after administration); 2.18 ± 0.39 in data set [3] (3 hrs. after administration); 2.26 ± 0.20 in data set [3] (6 hrs. after administration).
“CGCGGLLGGPSV (cysteine pairing not given here; also: technetium-99m label) [Peptide-2]”: the “[T]/[B] ratio … in inflammatory model rats” value is 3.35 and 3.35 ± 0.33 in data set [3] (1 hr. after administration); 2.78 ± 0.23 in data set [3] (3 hrs. after administration); 2.82 ± 0.17 in data set [3] (6 hrs. after administration).
